The test system of series [1] is DNA methyl green. The series is described as follows: Dose dependency curves (DNA methyl green, 96 well plate). It is filed as biochemical. The settings on record: for EC50: 37° C. The procedure: In order to further characterise ES, dose dependency curves were created enabling the EC50 value to be determined. ES was diluted to a concentration of 13.40 μg/ml in PBS, following this 1 in 10 dilutions in PBS were then performed. DNase was diluted to a concentration of 10 μg/ml in PBS, this was then also subject to 1 in 10 dilutions. 20 μl of each dilution was added to 180 μl of 0.2 mg/ml DNA methyl green in a 96 well plate (done in triplicate). Absorbance readings were then taken after 3, 18, and 24 hours at 630 nm in an Anthos Lucy1 microplate luminometer. The dose dependency curves were created by plots of log10 concentration (mcg/ml) against mean absorbance (630 nm) in the statistical analysis program, GraphPad Prism™.

For the next series, the system named is bacterial genomic DNA. The series is described as follows: Agarose gel electrophoresis of bacterial genomic DNA in presence of soybean trypsin inhibitor and EDTA. It is filed as biochemical, E. coli. The settings on record: 20 minutes 37° C. As for the experimental part: Samples containing bacterial genomic DNA, and ES or DNase in the absence and presence of EDTA and a soybean trypsin inhibitor were loaded onto an agarose gel to observe the effects of these inhibitors on DNase activity. A soybean trypsin inhibitor (Sigma) was washed 4 times with PBS and each time centrifuged into a pellet and the PBS removed as the supernatant. On the 5th washing, 500 μl of PBS were used to suspend the trypsin inhibitor and this was equally distributed between the samples to be treated. Samples of ES 162.3 μg/ml and PBS (control) were treated with the soybean trypsin inhibitor in order to remove any serine proteinases present. These samples were treated with STI 3 times in order to achieve maximal removal of serine proteinases, again following each treatment the solution was centrifuged and the ES/PBS removed as the supernatant. Following washing, these solutions were transferred to a fresh Eppendorf.
15.34 μl of 1.385 mg/ml bacterial genomic DNA was diluted to 0.1 mg/ml in 184.6 μl of either sterile PBS or 5 mM EDTA. 121.1 μg/ml DNase was also made up (10 μl of 1 mg/ml diluted in 72.6 μl of PBS.) In order to make up the samples, 50 μl of the appropriate one of these DNA solutions plus 3.125 μl of STI treated/untreated DNase/ES/PBS. […]

Series [2] deals with DNA methyl green. As to the kind of experiment: DNA methyl green assay of ES and DNase activity in the presence of EDTA. The class given is biochemical. The settings on record: 5.07 μg/ml ES, 3.78 μg/ml DNase. As for the experimental part: 125 μl of 81.15 μg/ml ES was added to both 1875 μl DNA methyl green (0.2 mg/ml) and DNA methyl green containing 5 mM EDTA. Final concentrations are therefore 5.07 μg/ml ES and 4.7 mM EDTA. DNase was diluted to 121.1 μg/ml, diluted 1 in 2 and added to 1875 μl of DNA methyl green and DNA methyl green containing EDTA. The activity of STI treated ES was also assayed in the same way, in the presence of or in the absence of EDTA. These samples were then incubated in a water bath at 37° C. 100 μl samples were taken every 2 minutes (in triplicate) and added to 150 μl of 0.083M sodium citrate in a 96 well plate. The plates were left to stand overnight and the absorbance then read at 630 nm in an Anthos Lucy1 microplate luminometer.

The EC50 is the concentration at which the effect is half-maximal. Lower therefore signals greater potency.

Take DNase: the EC50 was 0.1921 µg/mL in the series on DNA methyl green [1] (absorbance reading at 3 hours), 0.0605 µg/mL with DNA methyl green [1] (absorbance reading at 18 hours) and 0.0571 µg/mL in the series on DNA methyl green [1] (absorbance reading at 24 hours). Also, in the series with DNA methyl green [1] (from EC50 values), the “potency of DNase relative to ES” value was found to be 3 times. Besides, the “degradation of bacterial genomic DNA in presence of EDTA” value in the series with bacterial genomic DNA (5 mM EDTA) was “no DNase activity”. The “degradation of bacterial genomic DNA in absence of EDTA” value in the series on bacterial genomic DNA (untreated, no EDTA) is “no DNase activity”. For the same substance, the “DNase activity in the presence of EDTA” value in the series with DNA methyl green [2] (EDTA) is recorded as “activity almost abolished”. The “DNase activity in the absence of EDTA” value in the series with DNA methyl green [2] (no EDTA) is “relatively similar activity”.
